# Measured values reported in patent US20250179028A1, “ACRYLAMIDE COMPOUNDS” (NRG THERAPEUTICS LTD, priority 2022, published 2025).
# Read-outs that look alike come from different tables or passages of the source.
# Columns and labels:
# [1] = Hepatocyte clearance assay, rat; format: in vitro ADME; settings: average value from two experiments, read-out: Rat heps Clint
# Experimental: (§1) In vitro clearance studies were performed in primary rat and human hepatocytes (BiolVT). Vials of cryopreserved rat or human hepatocytes were thawed in a 37° C. water bath for 2 min. Cells were transferred into thawing medium (Williams' Medium E containing 30% Percoll, 1×GlutaMAX-1, 15 mM HEPES, 5% fetal bovine serum (FBS), 4 μg/ml insulin, 1 μM dexamethasone), centrifuged at 100 g for 10 min then resuspended in culture medium (Leibovitz's L-15 Medium) at a concentration of 0.5×10^6 viable cells/mL (number of viable cells assessed using AO/PI staining). Hepatocytes (198 μL) were transferred into wells of a 96-well non-coated plate and placed in a 37° C. incubator for 10 min. Test compound solutions were prepared from 10 mM stocks in DMSO, diluted to 100 μM in 50% (v/v in water) acetonitrile. Test compound samples (2 μl) were added to each well of hepatocytes and incubated at 37° C. Samples (25 μl) were collected at t=0, 15, 30, […] and 120 min, mixed with 6 volumes (150 μl) of acetonitrile containing internal standard (100 nM alprazolam, 200 nM caffeine and 100 nM tolbutamide), vortexed for 5 min and centrifuged for 45 min at 3220 g. An aliquot of supernatant (100 μL) was diluted with 100 μL ultra-pure water, and the mixture was used for LC/MS/MS analysis. All incubations were performed in duplicate. Peak areas were determined from extracted ion chromatograms. The slope value, k, was determined by linear regression of the natural logarithm of the remaining percentage of the parent drug vs. incubation time curve. The in vitro half-life (in vitro t½) was determined from the slope value: in vitro t½=0.693/k. Conversion of the in vitro t½ (in min) into the in vitro intrinsic clearance (in vitro CLint, in μL/min/1×10^6 cells) was done using the following equation (mean of duplicate determinations):
# (§2) [formula] • V=incubation volume (0.2 mL) • N=number of hepatocytes per well (0.1×10^6 cells).
# [2] = Hepatocyte clearance assay, human; format: in vitro ADME; settings: average value from two experiments, read-out: Human heps Clint
# Experimental: as §1, §2
# [3] = tested on: mPTP; assay: mPTP activity (Ca2+ retention) assay in isolated rat liver mitochondria; format: biochemical; settings: for mPTP Rat liver pIC50: isolated rat liver mitochondria, average value from multiple experiments (n ≥ 2)
# Excerpt: Pharmacological inhibition or modulation of the mPTP can be measured in well characterised ‘Ca^2+ retention’ assays performed in isolated mitochondria. In vitro isolated mitochondria rapidly sequester exogenous Ca^2+ until the intramitochondrial Ca^2+ concentration reaches the threshold for mPTP activation. Once the pore is activated, mitochondrial integrity is compromised and the stored Ca^2+ is released. The distribution of Ca^2+ between extra- and intra-mitochondrial compartments can be measured in real time with the use of membrane-impermeant Ca^2+ sensitive fluorescent dyes. Depending on the configuration of the assay, inhibition or modulation of the mPTP either delays the opening of the pore or increases the concentration of Ca^2+ required to induce mPTP opening.
# MPTP activity was measured in mitochondria freshly isolated from female Sprague Dawley (250 to 300 gram) rat livers using the following method. Cervical dislocation was performed on the rat. The liver was then perfused in-situ with ˜40 ml cold Dulbecco's Phosphate Buffered Saline (DPBS) prior to dissection and transferred into 30 ml Isolation Buffer (250 mM Sucrose, 10 mM KCl, 1 mM EGTA, 1 mM EDTA, 25 mM HEPES, adjusted to pH 7.5 with 1 M NaOH). Each lobe of the liver was then removed from the buffer, minced using tweezers and a scalpel into ˜5 mm pieces then transferred into a 50 ml Potterton dounce homogenization tube on ice containing 30 ml ice-cold centrifugation buffer (300 mM Trehalose, 25 mM HEPES, 1 mM EGTA, 1 mM EDTA, 10 mM KCl, adjusted to pH 7.5 with 1 M NaOH and supplemented with 0.1% bovine serum albumin (BSA) and complete protease inhibitor cocktail (one tablet of inhibitor per 50 mls of buffer). Homogenisation was carried out using a teflon pestle at 1800 rpm. The slurry was centrifuged at 800 g for 10 min at 4° C., then the supernatant centrifuged at 10,000 g for 10 min. The pellet was washed once with FLIPR assay buffer (75 mM Mannitol, 25 mM Sucrose, 5 mM Potassium Phosphate Monobasic, 20 mM Tris base, 100 mM KCl, 0.1% BSA adjusted to pH 7.4 with 5M HCl) centrifuged again, then resuspended in FLIPR assay buffer to a concentration of 8.8 mg/ml protein.
# Tested compounds (10 mM stock in DMSO) were serially diluted in DMSO in half log steps to generate 10 test concentrations (final concentrations in assay 30 μM to 1 nM). An intermediate dilution of 5 μl DMSO samples into 247 μl FLIPR assay buffer was carried out prior to transfer of 5 μl into duplicate wells of a 384 well polypropylene assay plate. Control wells were 0.5% (v/v) DMSO and 5 μM cyclosporin A.
# A stock mitochondria/Fluo5N assay solution was prepared in 5.6 ml FLIPR assay buffer (at RT) supplemented with succinate disodium salt (10 mM), rotenone (1 μM), Fluo5N pentapotassium salt (2 μM) and 1 ml mitochondria suspension, then transferred (15 μl) into the assay plate containing test compounds and incubated for 10 min at RT. Assay plates were then transferred to a FLIPR Tetra plate reader (Molecular Devices). Dye fluorescence was then measured every 3 sec for a total of 10 min. After 12 sec, a 2.5 μl bolus of CaCl2 (75 μM) was added from a source plate containing 675 μM CaCl2 in FLIPR assay buffer. IC50 values for tested compounds were calculated using the fluorescence value collected at the 10 min timepoint with % inhibition calculated using the DMSO control and cyclosporin A values as […] respectively.
# [4] = PBS and FaSSIF solubility; format: physicochemical; settings: kinetic from dmso stock
# Experimental: Test compounds were prepared as 10 mM stocks in DMSO and 15 μl samples transferred in duplicate into 1.5 mL glass flat bottom vials (BioTech Solutions). Fasted state simulated intestinal fluid (FaSSIF) or PBS (pH 7.4) was added to each vial to final volume of 500 μl. One PTFE encapsulated stir stick (V&P Scientific) was placed in each vial before sealing with PTFE/SIL plugs (BioTech Solutions). Vials were shaken at 1100 rpm for 2 hr at 25° C. Samples were then filtered through MultiScreen Solvinert filter plates (Millipore) via vacuum filtration. Aliquots of filtrate (5 μl) plus 5 μl DMSO were diluted in 490 μl 50% acetonitrile in water containing internal standard. The filtrate was analysed and quantified against a standard of known concentration using LC-MS/MS. Solubility values of the test compound and control compound were calculated as follows: […]
# [5] = biological target: CYP2D6 (Homo sapiens (Human), UniProt P10635); assay: Cytochrome P450 CYP2D6 inhibition in human liver microsomes; format: in vitro ADME; settings: human liver microsomes, average value from two experiments; for inhibition at 20 min, 1 µM: probe dextromethorphan 2 µM (dextrorphan formation), 1 uM test compound, negative values = no effective inhibition
# Chain of CYP2D6 (P10635 whole entry, canonical isoform): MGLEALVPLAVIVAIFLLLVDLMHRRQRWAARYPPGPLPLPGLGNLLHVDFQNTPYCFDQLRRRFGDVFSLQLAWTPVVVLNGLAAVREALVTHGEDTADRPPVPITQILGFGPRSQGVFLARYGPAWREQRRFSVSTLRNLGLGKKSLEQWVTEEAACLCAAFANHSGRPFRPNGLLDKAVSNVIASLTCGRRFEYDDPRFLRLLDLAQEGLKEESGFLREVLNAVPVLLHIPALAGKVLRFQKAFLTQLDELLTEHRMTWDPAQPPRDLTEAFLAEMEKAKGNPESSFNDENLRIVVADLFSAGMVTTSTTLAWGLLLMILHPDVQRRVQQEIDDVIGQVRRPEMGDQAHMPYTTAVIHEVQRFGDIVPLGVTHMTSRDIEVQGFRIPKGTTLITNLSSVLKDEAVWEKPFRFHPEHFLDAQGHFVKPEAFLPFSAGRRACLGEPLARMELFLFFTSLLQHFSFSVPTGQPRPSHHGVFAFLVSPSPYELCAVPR
# Experimental: Studies to assess tested compound mediated inhibition of cytochrome P450 enzyme isoform CYP2D6 were performed using human liver microsomes (BD Gentest) using either a single concentration (1 μM) of test compound or concentration response (0.1, 0.3, 1, 3, 10 and 30 μM) to derive an IC50. Tested compound solutions were prepared from 10 mM stocks in DMSO and diluted to 200 μM in DMSO. Reactions were prepared in a 96 deep well plate by combining 1 μl test compound with 179 μl reaction mixture (100 mM phosphate buffered saline (PBS), 0.2 mg/mL microsomes and 2 μM Dextromethorphan prepared from stocks as detailed below).
# The positive control inhibitor, quinidine, was used at a final concentration of 0.5 μM when used at a single concentration. The final concentrations of quinidine used to derive an IC50 were 0, 0.1, 0.3, 1, 3, 10 and 30 μM. Plates were warmed at 37° C. for 15 min before starting reactions with 20 μl 10 mM NADPH solution in PBS and incubated for 20 min at 37° C. The assay is performed in duplicate. Reactions were quenched with 200 μl cold acetonitrile containing internal standards (200 nM labetalol, 200 nM alprazolam and 100 nM tolbutamide). The plate was centrifuged at 4000 rpm for 30 minutes, placed on ice for 20 minutes and then centrifuged at 4000 rpm for 30 minutes again to precipitate protein. 100 μL of the supernatant was transferred to a new plate and diluted with 100 μL pure water before being analysed using UPLC/MS/MS. The products of the transformation for dextromethorphan to dextrorphan was monitored by UPLC-MS/MS. The inhibition of CYP2D6 in human liver microsomes was measured as the percentage decrease in the activity of dextrorphan formation compared to non-inhibited controls (=100% activity). The IC50 value was calculated (test compound concentration which produces 50% inhibition) by using Excel Xlfit.
# [6] = cryopreserved primary rat hepatocytes
# [7] = cryopreserved primary human hepatocytes
# [8] = fasted state simulated intestinal fluid (FaSSIF), fassif, Fasted state simulated intestinal fluid, 2 hr at 25° C., read-out: Solubility FaSSIF
# [9] = cryopreserved primary hepatocytes
# [10] = aqueous buffer, PBS pH 7.4, 2 hr at 25° C., read-out: Solubility PBS (pH 7.4)
SMILES,"hepatocyte CLint at 1 µM [1, 6] [µL/min/1e6 cells]","hepatocyte CLint at 1 µM [2, 7] [µL/min/1e6 cells]",mPTP Rat liver pIC50 [3],"solubility at 2 h [4, 8] [µM]","inhibition at 20 min, 1 µM [5] [%]",IC50 [5] [µM],"hepatocyte CLint at 1 µM [2, 9] [µL/min/1e6 cells]","hepatocyte CLint at 1 µM [1, 9] [µL/min/1e6 cells]","solubility at 2 h [4, 10] [µM]",activity in the rat liver mitochondria assay (in words) [3]
"Cc1ccc(F)c(C)c1NC(=O)/C=C/c1ccc2c(c1)NC(=O)C2 [Example 20, (E)-N-(3-fluoro-2,6-dimethylphenyl)-3-(2-oxoindolin-6-yl)acrylamide]",11.9,6.08,6.8,210,-1.76,,,,,
"N#Cc1n[nH]c2cc(/C=C/C(=O)NC3CCc4ccccc43)ccc12 (centres unmarked) [Example 26, (E)-3-(3-cyano-1H-indazol-6-yl)-N-(2,3-dihydro-1H-inden-1-yl)acrylamide]",87.5,,7.2,,3.49,8.8,,,,
"O=C(/C=C/c1cc2[nH]nnc2cc1F)NC1CCc2ccccc21 (centres unmarked) [Example 27, (E)-N-(2,3-dihydro-1H-inden-1-yl)-3-(5-fluoro-1H-benzo[d][1,2,3]triazol-6-yl) acrylamide]",,,,43.1,14.3,,9.6,,,
"O=C(/C=C/c1ccc2c(C(F)(F)F)n[nH]c2c1)NC1CCc2ccccc21 (centres unmarked) [Example 28, (E)-N-(2,3-dihydro-1H-inden-1-yl)-3-(3-(trifluoromethyl)-1H-indazol-6-yl) acrylamide]",,,,,8.27,,,73.6,,
"Cc1cccc(C)c1NC(=O)/C=C/c1ccc2c(c1)[nH]c(=O)n2C [Example 29, (E)-N-(2,6-dimethylphenyl)-3-(1-methyl-2-oxo-2,3-dihydro-1H-benzo[d]imidazol-5-yl)acrylamide]",16.1,,6.9,69.8,-3.03,,,,33.5,
"Cc1c(F)cc(F)c(C)c1NC(=O)/C=C/c1ccc2c(c1)NC(=O)C2 [Example 35, (E)-N-(3,5-difluoro-2,6-dimethylphenyl)-3-(2-oxoindolin-6-yl)acrylamide]",,8.33,7.2,258,2.83,,,,,
"Cc1cc(F)c(F)c(C)c1NC(=O)/C=C/c1ccc2c(c1)NC(=O)C2 [Example 36, (E)-N-(3,4-difluoro-2,6-dimethylphenyl)-3-(2-oxoindolin-6-yl)acrylamide]",9.41,7.26,7.2,,-2.57,,,,65.9,
"Cc1c(F)cccc1NC(=O)/C=C/c1ccc2c(C)n[nH]c2c1 [Example 37, (E)-N-(3-fluoro-2-methylphenyl)-3-(3-methyl-1H-indazol-6-yl)acrylamide]",87.6,18.9,8.1,2.95,5.04,,,,,highest activity
"CO[C@H]1Cc2ccccc2[C@@H]1NC(=O)/C=C/c1ccc2c(Cl)n[nH]c2c1 [Example 72, (E)-3-(3-chloro-1H-indazol-6-yl)-N-((1S,2S)-2-methoxy-2,3-dihydro-1H-inden-1-yl)acrylamide]",,,,24.4,9.98,,11.3,77,,
"COCc1c(F)cncc1NC(=O)/C=C/c1ccc2c(C)n[nH]c2c1 [Example 114, (2E)-N-[5-fluoro-4-(methoxymethyl)pyridin-3-yl]-3-(3-methyl-1H-indazol-6-yl)prop-2-enamide]",,,,19,,,3,76,,
